Reference: patent publication US12478624B2, “Heterocyclic derivatives, pharmaceutical compositions and their use in the treatment or amelioration of cancer” (Tolremo Therapeutics AG, priority 2019, dated 2025)

Test system: A375 cells
Assay: Assay 1: A375 cells treated with S1152, S1008 and compound, immunofluorescence (sc-365823) signal
Assay type: cell-based
Settings: 1 μM S1152 + 0.5 μM S1008, one day
Experimental: One thousand four hundred A375 cells were seeded in each well of a 384 well microplate. One day later they were treated with 1 μM S1152 (Selleckchem) in dimethyl sulfoxide, 0.5 μM S1008 (Selleckchem) and dose ranges of invention compounds for one day in Dulbecco's Modified Eagle's Medium supplemented with 10% fetal calf serum and 2 mM (2S)-2-amino-4-carbamoylbutanoic acid. Wells were incubated with 4% polyoxymethylene (Sigma Aldrich 158127) at ambient temperature. […] After one minute phosphate-buffered saline was replaced with 0.2% polyethylene glycol octylphenyl ether in phosphate-buffered saline. […] 1% aminoethanoic acid in phosphate-buffered saline was added for ten minutes at ambient temperature. […] After one hour at ambient temperature in the dark, signal in wells was measured with a Acumen Cellista. 3,8-Diamino-5-[3-(diethylmethylammonio)propyl]-6-phenylphenanthridinium diiodide-positive objects were defined in FL3 (565-600 nm) with a perimeter between 50-800 μm and a total intensity of 10000-1000000 FLU. Signal in FL2 (500-530 nm) was measured in defined objects. A normalized ratio of total In FL2 over total In FL3 staining was log transformed. A non-linear regression (variable slope, 4 parameters) was used to calculate EC50 values using GraphPad Prism (Version 7.0d).
In an alternative procedure, assay 1 has been affected by changing the counteratain. […] Cells were incubated with 0.5 μg/ml 2-(4-Amidinophenyl)-6-indolecarbamidine dihydrochloride, 4′,6-Diamidino-2-phenylindole dihydrochloride (Sigma D9542) in phosphate-buffered saline for at least 30 minutes at ambient temperature in the dark. A Celigo Imager (Nexcelom) was used to acquire images in the blue and green channel. The blue channel was used as a mask to define the area for the green signal. The average integrated intensity of the green signal was normalized and a non-linear regression (variable slope, 4 parameter) was used to calculate the EC50 values using GraphPad Prism (Version 8.4)

Row | EC50 [nM] | EC50 (Homo sapiens, A-375, 24 h) [nM] | SMILES
1 | – | 1000 to 10000 | CC[C@H]1CC[C@@H](c2nc(Nc3cccc(C)c3)cc(-c3cccnc3)n2)CN1C(C)=O (racemic) [Compound 00018, (+/−)-cis-1-(2-ethyl-5-(4-(pyridin-3-yl)-6-(m-tolylamino)pyrimidin-2-yl)piperidin-1-yl)ethan-1-one]
2 | – | > 10000 | CC[C@@H]1CC[C@@H](c2nc(Nc3cccc(C)c3)cc(-c3cccnc3)n2)CN1C(C)=O (racemic) [Compound 00019, (+/−)-frans-1-(2-ethyl-5-(4-(pyridin-3-yl)-6-(m-tolylamino)pyrimidin-2-yl)piperidin-1-yl)ethan-1-one]
3 | – | 1000 to 10000 | CC[C@H]1CC[C@@H](c2nc(Nc3cccc(F)c3)cc(-c3cccnc3)n2)CN1C(C)=O (racemic) [Compound 00020, (+/−)-c/s-1-(2-ethyl-5-(4-((3-fluorophenyl)amino)-6-(pyridin-3-yl)pyrimidin-2-yl)piperidin-1-yl)ethan-1-one]
4 | – | > 10000 | CC[C@@H]1CC[C@@H](c2nc(Nc3cccc(F)c3)cc(-c3cccnc3)n2)CN1C(C)=O (racemic) [Compound 00021, (+/−)-trans-1-(2-ethyl-5-(4-((3-fluorophenyl)amino)-6-(pyridin-3-yl)pyrimidin-2-yl)piperidin-1-yl)ethan-1-one]
5 | 200 to 1000 | – | CC(=O)N1C[C@H](c2nc(Nc3cccc(C)c3)cc(-c3cccnc3)n2)CC[C@@H]1C(F)(F)F (racemic) [Compound 00022, (+/−)-c/s-1-(5-(4-(pyridin-3-yl)-6-(m-tolylamino)pyrimidin-2-yl)-2-(trifluoromethyl)piperidin-1-yl)ethan-1-one]
6 | – | 1000 to 10000 | CC(=O)N1C[C@H](c2nc(Nc3cccc(F)c3)cc(-c3cccnc3)n2)CC[C@@H]1C(F)F (racemic) [Compound 00025, (+/−)-c/s-1-(2-(difluoromethyl)-5-(4-((3-fluorophenyl)amino)-6-(pyridin-3-yl)pyrimidin-2-yl)piperidin-1-yl)ethan-1-one]
7 | – | > 10000 | CC(=O)N1C[C@H](c2nc(Nc3cccc(F)c3)cc(-c3cccnc3)n2)CC[C@H]1C(F)F (racemic) [Compound 00026, (+/−)-frans-1-(2-(difluoromethyl)-5-(4-((3-fluorophenyl)amino)-6-(pyridin-3-yl)pyrimidin-2-yl)piperidin-1-yl)ethan-1-one]
8 | – | 1000 to 10000 | CC(=O)N1C[C@H](c2nc(Nc3cccc(C)c3)cc(-c3cccnc3)n2)CC[C@@H]1C(F)F (racemic) [Compound 00027, (+/−)-cis-1-(2-(difluoromethyl)-5-(4-(pyridin-3-yl)-6-(m-tolylamino)pyrimidin-2-yl)piperidin-1-yl)ethan-1-one]
9 | 200 to 1000 | – | CC(=O)N1C[C@H](c2nc(Nc3cccnc3)cc(-c3cccnc3)n2)CC[C@@H]1C (racemic) [Compound 00102, (+/−)-cis-1-(2-methyl-5-(4-(pyridin-3-yl)-6-(pyridin-3-ylamino)pyrimidin-2-yl)piperidin-1-yl)ethan-1-one]
10 | 200 to 1000 | – | CC(=O)N1C[C@H](c2nc(Nc3ccncc3)cc(-c3cccnc3)n2)CC[C@@H]1C [Compound 00006]
11 | > 10000 | – | CC(=O)N1C[C@@H](c2nc(Nc3ccncc3)cc(-c3cccnc3)n2)CC[C@H]1C [Compound 00007]
12 | < 200 | – | [2H]C([2H])([2H])[C@H]1CC[C@@H](c2nc(Nc3cccc(F)c3)cc(-c3cccnc3)n2)CN1C(C)=O [Compound 00010]
13 | – | > 10000 | CC(=O)N1C[C@H](c2nc(Nc3cccc(F)c3)cc(-c3cccnc3)n2)CC[C@H]1C [Compound 00015, (+/+)-trans-1-(5-(4-((3-fluorophenyl)amino)-6-(pyridin-3-yl)pyrimidin-2-yl)-2-methylpiperidin-1-yl)ethan-1-one]
14 | < 200 | – | CC(=O)N1C[C@H](c2nc(Nc3ccc4[nH]ccc4c3)cc(-c3cccnc3)n2)CC[C@@H]1C [Compound 00028, 1-((2S,5R)-5-(4-((1H-indol-5-yl)amino)-6-(pyridin-3-yl)pyrimidin-2-yl)-2-methylpiperidin-1-yl)ethan-1-one]
15 | 200 to 1000 | – | CC(=O)N1C[C@H](c2nc(Nc3ccc4cn[nH]c4c3)cc(-c3cccnc3)n2)CC[C@@H]1C [Compound 00029, 1-((2S,5R)-5-(4-((1H-indazol-6-yl)amino)-6-(pyridin-3-yl)pyrimidin-2-yl)-2-methylpiperidin-1-yl)ethan-1-one]
16 | < 200 | – | COc1cc(F)cc(Nc2cc(-c3cccnc3)nc([C@@H]3CC[C@H](C)N(C(C)=O)C3)n2)c1 [Compound 00031, 1-((2S,5R)-5-(4-((3-fluoro-5-methoxyphenyl)amino)-6-(pyridin-3-yl)pyrimidin-2-yl)-2-methylpiperidin-1-yl)ethan-1-one]
17 | 200 to 1000 | – | CC(=O)N1C[C@H](c2nc(Nc3ccc4nc[nH]c4c3)cc(-c3cccnc3)n2)CC[C@@H]1C [Compound 00032, 1-((2S,5R)-5-(4-((1H-benzo[d]imidazol-6-yl)amino)-6-(pyridin-3-yl)pyrimidin-2-yl)-2-methylpiperidin-1-yl)ethan-1-one]
18 | 200 to 1000 | – | CC(=O)N1C[C@H](c2nc(Nc3ccc4[nH]nnc4c3)cc(-c3cccnc3)n2)CC[C@@H]1C [Compound 00033, 1-((2S,5R)-5-(4-((1H-benzo[d][1,2,3]triazol-5-yl)amino)-6-(pyridin-3-yl)pyrimidin-2-yl)-2-methylpiperidin-1-yl)ethan-1-one]

Continued, compound first:

Row | SMILES | EC50 [nM] | EC50 (Homo sapiens, A-375, 24 h) [nM]
19 | COc1cncc(-c2cc(Nc3cccc(Cl)c3)nc([C@@H]3CC[C@H](C)N(C(C)=O)C3)n2)c1 (racemic) [Compound 00016, (+/−)-cis-1-(5-(4-((3-chlorophenyl)amino)-6-(5-methoxypyridin-3-yl)pyrimidin-2-yl)-2-methylpiperidin-1-yl)ethan-1-one] | < 200 | –
20 | COc1cncc(-c2cc(Nc3cccc(Cl)c3)nc([C@@H]3CC[C@@H](C)N(C(C)=O)C3)n2)c1 (racemic) [Compound 00017, (+/−)-trans-1-(5-(4-((3-chlorophenyl)amino)-6-(5-methoxypyridin-3-yl)pyrimidin-2-yl)-2-methylpiperidin-1-yl)ethan-1-one] | – | 1000 to 10000
21 | CC(=O)N1C[C@H](c2nc(Nc3cccc(F)c3)cc(-c3cccnc3)n2)CC[C@@H]1C(F)(F)F (racemic) [Compound 00023, (+/−)-c/s-1-(5-(4-((3-fluorophenyl)amino)-6-(pyridin-3-yl)pyrimidin-2-yl)-2-(trifluoromethyl)piperidin-1-yl)ethan-1-one] | 200 to 1000 | –
22 | CC(=O)N1C[C@H](c2nc(Nc3cccc(F)c3)cc(-c3cccnc3)n2)CC[C@H]1C(F)(F)F (racemic) [Compound 00024, (+/−)-trans-1-(5-(4-((3-fluorophenyl)amino)-6-(pyridin-3-yl)pyrimidin-2-yl)-2-(trifluoromethyl)piperidin-1-yl)ethan-1-one] | – | > 10000
23 | CC(=O)N1C[C@H](c2nc(Nc3cncc(C)c3)cc(-c3cncnc3)n2)CC[C@@H]1C (racemic) [Compound 00097, (+/−)-c/s-1-(2-methyl-5-(6-((5-methylpyridin-3-yl)amino)-[4,5′-bipyrimidin]-2-yl)piperidin-1-yl)ethan-1-one] | – | 1000 to 10000
24 | CC(=O)N1C[C@H](c2nc(Nc3cncc(C)c3)cc(-c3cncc(C)c3)n2)CC[C@@H]1C (racemic) [Compound 00098, (+/−)-c/s-1-(2-methyl-5-(4-(5-methylpyridin-3-yl)-6-((5-methylpyridin-3-yl)amino)pyrimidin-2-yl)piperidin-1-yl)ethan-1-one] | < 200 | –
25 | CC(=O)N1C[C@H](c2nc(Nc3cncc(C)c3)cc(-c3cncc4[nH]ccc34)n2)CC[C@@H]1C (racemic) [Compound 00099, (+/−)-cis-1-(2-methyl-5-(4-((5-methylpyridin-3-yl)amino)-6-(1H-pyrrolo[2,3-c]pyridin-4-yl)pyrimidin-2-yl)piperidin-1-yl)ethan-1-one] | 200 to 1000 | –
26 | CC(=O)N1C[C@H](c2nc(Nc3cncc(C)c3)cc(-c3cncc(C4COC4)c3)n2)CC[C@@H]1C (racemic) [Compound 00100, (+/−)-c/s-1-(2-methyl-5-(4-((5-methylpyridin-3-yl)amino)-6-(5-(oxetan-3-yl)pyridin-3-yl)pyrimidin-2-yl)piperidin-1-yl)ethan-1-one] | 200 to 1000 | –
27 | CC(=O)N1C[C@H](c2nc(Nc3cccc(F)c3)cc(-c3cncc(O)c3)n2)CC[C@@H]1C (stereo in doubt) [Compound 00005] | < 200 | –
28 | CC(=O)N1C[C@@H](c2nc(Nc3cncc(C)c3)cc(-c3cnccn3)n2)CC[C@H]1C [Compound 00002, 1-((2R,5S)-2-methyl-5-(4-((5-methylpyridin-3-yl)amino)-6-(pyrazin-2-yl)pyrimidin-2-yl)piperidin-1-yl)ethan-1-one] | > 10000 | –
29 | [2H]C([2H])([2H])[C@@H]1CC[C@H](c2nc(Nc3cncc(C)c3)cc(-c3cnccn3)n2)CN1C(C)=O [Compound 00011] | > 10000 | –
30 | [2H]C([2H])([2H])[C@H]1CC[C@@H](c2nc(Nc3cncc(C)c3)cc(-c3cnccn3)n2)CN1C(C)=O [Compound 000012] | < 200 | –
